One assay has as its target human KHK-C (Homo sapiens (Human), UniProt P50053). The assay is described as follows: KHK Biochemical Assay (IC50), ADP-Glo, KHK-C. Here is the method: (§1) The His-tagged fusion protein was expressed using BL21 (DE3) with IPTG induction and purified using Ni-NTA column followed by dialysis into final buffer containing 25 mM Tris-HCl pH 8.0, 250 mM NaCl.
(§2) KHK Biochemical Assay (IC50)
(§3) Compounds were tested for KHK enzyme inhibition in a high-throughput 384-well assay format using the ADP-Glo assay (Promega) in buffer consisting of 50 mM Hepes (pH 7.4), 140 mM KCl, 5 mM MgCl2 and 0.01% Triton-X. 0.2 nM. […] Compounds were serially diluted (1:3) in DMSO.
(§4) The compounds were pre-incubated with 5 μL of 2× final enzyme concentration for 30 minutes before adding 5 μL of 2× final concentration of ATP and fructose. The plates were incubated at room temperature for 4 hours before adding ADP-Glo reagent to quench the enzyme reaction, followed by incubation at room temperature for 1 hour. The ADP-Glo detection reagent was then added to the plates and luminescence was measured on the Envision plate reader after 1 hour.
(In general: ADP-Glo first removes unused ATP, then detects ADP through luciferase.)

The target of a further assay is human KHK-A (Homo sapiens (Human), UniProt P50053). The assay is described as follows: KHK Biochemical Assay (IC50), ADP-Glo, KHK-A. The note with it: average of at least two separate assays. As for the experimental part:
as §1, §2, §3, §4

Setting [1] is: average of at least two separate assays.
The mark [2] stands for this setting: ADP-Glo, average of at least two separate assays.

Broadly, the IC50 is the concentration that inhibits the measured activity by half. Low values mean higher potency, high ones lower potency.

Like-named read-outs stand apart in the source and are kept apart here.

human KHK-A, sequence (P50053 other isoform, or with tags, fused parts or gaps): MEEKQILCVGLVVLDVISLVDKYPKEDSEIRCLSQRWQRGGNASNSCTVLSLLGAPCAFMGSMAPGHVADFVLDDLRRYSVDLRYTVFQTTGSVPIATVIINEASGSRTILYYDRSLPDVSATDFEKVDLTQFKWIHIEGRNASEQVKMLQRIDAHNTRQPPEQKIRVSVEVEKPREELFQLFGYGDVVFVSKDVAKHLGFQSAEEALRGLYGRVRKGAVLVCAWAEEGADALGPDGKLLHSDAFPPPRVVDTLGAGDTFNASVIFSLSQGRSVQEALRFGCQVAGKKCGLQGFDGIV
human KHK-C, sequence (P50053 whole entry, the tested form may be a part): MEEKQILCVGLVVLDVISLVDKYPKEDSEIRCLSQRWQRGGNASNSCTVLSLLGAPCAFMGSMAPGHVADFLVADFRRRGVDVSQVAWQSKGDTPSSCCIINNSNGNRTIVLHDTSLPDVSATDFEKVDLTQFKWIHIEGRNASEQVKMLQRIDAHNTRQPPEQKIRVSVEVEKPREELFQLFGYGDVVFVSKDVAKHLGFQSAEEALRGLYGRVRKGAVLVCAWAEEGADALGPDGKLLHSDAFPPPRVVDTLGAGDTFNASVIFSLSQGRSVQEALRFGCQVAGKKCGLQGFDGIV

As for “2-(3-(7,7-difluoro-2-((2S,3R)-3-hydroxy-2-methylazetidin-1-yl)-6,7-dihydro-5H-cyclopenta[d]pyrimidin-4-yl)phenylsulfonimidoyl)acetonitrile [Example 628]”, the concentration for half-maximal inhibition (IC50) at human KHK-C (setting [1]) came to 8.8 nM; on human KHK-A, 10.3 nM.
As for “2-[(2S)-2-methylazetidin-1-yl]-4-(3-methylimidazol-4-yl)-6,7-dihydro-5H-cyclopenta[d]pyrimidine [Example 341]”, the half-maximal inhibitory concentration (IC50) against human KHK-C (setting [2]) is 111 nM; against human KHK-A (ADP-Glo), 133 nM.
Take “3-(24(2S,3R)-3-fluoro-2-methylazetidin-1-yl)-6,8-dihydro-5H-pyrano[3,4-d]pyrimidin-4-yl)benzenesulfonamide [Example 287]”: the results for the half-inhibitory concentration (IC50) against human KHK-C (setting [2]) and against human KHK-A (ADP-Glo) were 1270 nM and 696 nM, respectively.
The like results for `C[C@H]1CCN1c1nc(-c2ccccc2)c2c(n1)C1CC1C2` (mixture of isomers) [Example 332, 9-[(2S)-2-methylazetidin-1-yl]-7-phenyl-8,10-diazatricyclo[4.4.0.02,4]deca-1(10),6,8-triene] were, in that order, 2170 nM and 1910 nM.
With `C[C@H]1CCN1c1nc2c(c(-c3cccc(C(=O)N[C@H]4CC[C@@H]4O)c3)n1)CCC2` (racemic) [Example 59, N-((18*,28*)-2-hydroxycyclobutyl)-3-(2-((8)-2-methylazetidin-1-yl)-6,7-dihydro-5H-cyclopenta[d]pyrimidin-4-yl)benzamide], the concentration for half-maximal inhibition (IC50) against human KHK-C (setting [2]) is 171 nM; on human KHK-A (ADP-Glo) it was 42.9 nM.
Consider `C[C@H]1CCN1c1nc2c(c(-c3cccc(C(=O)N[C@H]4CC[C@H]4O)c3)n1)CCC2` (racemic) [Example 60, N-((18*,2R*)-2-hydroxycyclobutyl)-3-(2-((8)-2-methylazetidin-1-yl)-6,7-dihydro-5H-cyclopenta[d]pyrimidin-4-yl)benzamide], for which the half-inhibitory concentration (IC50) against human KHK-C (setting [2]) was 119 nM; at human KHK-A (ADP-Glo) it was 61.6 nM.
As for `NS(=O)(=O)c1cccc(-c2nc(N3CC4CCCC43)nc3c2CCC3)c1` (racemic) [Example 79, (rac)-3-(2-(6-azabicyclo[3.2.0]heptan-6-yl)-6,7-dihydro-5H-cyclopenta[d]pyrimidin-4-yl)benzenesulfonamide], the figures for the IC50 against human KHK-C (setting [2]) and against human KHK-A (ADP-Glo) were 4990 nM and 6960 nM, respectively.
In the case of `NS(=O)(=O)c1cccc(-c2nc(N3CC[C@@H]4[C@H](O)C[C@@H]43)nc3c2CCC3)c1` (racemic) [Example 80, (rac)-3-(2-((1S*,5S*,6R*)-6-hydroxy-2-azabicyclo[3.2.0]heptan-2-yl)-6,7-dihydro-5H-cyclopenta[d]pyrimidin-4-yl)benzenesulfonamide], the 50% inhibitory concentration (IC50) is 957 nM at human KHK-C (setting [2]) and 865 nM on human KHK-A (ADP-Glo).
Taken in the same sequence, the figures for `C[C@H]1[C@H](O)CN1c1nc2c(c(-c3cccc([C@H]4C[C@@H]4C(=O)O)c3)n1)CCC2` (single isomer, unassigned) [Example 113] were 13.2 nM and 18.2 nM.
For `C[C@H]1[C@H](O)CN1c1nc2c(c(-c3cccc([C@@H]4C[C@H]4C(=O)O)c3)n1)CCC2` (single isomer, unassigned) [Example 114], the results for the IC50 against human KHK-C (setting [2]) and at human KHK-A (ADP-Glo) were 46.2 nM and 51 nM, respectively.
Taken in the same sequence, the figures for `C[C@H]1CCN1c1nc(-c2ccccc2)c2c(n1)[C@H]1C[C@H]1C2` (single isomer, unassigned) [Example 334] were 9700 nM and 9270 nM.
Regarding `C[C@H]1[C@H](O)CN1c1nc(-c2ccc3c(c2)OC[C@]32COC(=O)N2)c2c(n1)C(F)(F)CC2` (single isomer, unassigned) [Example 482], the half-maximal inhibitory concentration (IC50) against human KHK-C (setting [1]) came to 12 nM; at human KHK-A, 26.4 nM.
Turning to `C[C@H]1[C@H](O)CN1c1nc(-c2ccc3c(c2)OC[C@]32COCC(=O)N2)c2c(n1)C(F)(F)CC2` (single isomer, unassigned) [Example 498], the IC50 against human KHK-C (setting [1]) is 1.2 nM; on human KHK-A, 18.9 nM.
For `C[C@H]1CCN1c1nc(N2CC3CC3C2)cc(C(F)(F)F)n1` (stereo partly drawn) [Reference Compound 1b, 3-(2-((S)-2-methylazetidin-1-yl)-6-(trifluoromethyl)pyrimidin-4-yl)-3-azabicyclo[3.1.0]hexane, reference compound], the 50% inhibitory concentration (IC50) against human KHK-C stood at 13100 nM.

Source of the values: US12410160B2 (Gilead Sciences, Inc., priority 2021, dated 2025).
